Laboratory results taken from patent US11084800B2 (Achillion Pharmaceuticals, Inc., priority 2017, dated 2021).

The molecules below were run against Human Factor D (Homo sapiens (Human), UniProt P00746) (assay: Human Factor D Assay). Settings: Table 6; Factor D 80 nM, substrate Z-L-Lys-SBz; read-out: IC50.
Assay type: biochemical
Description: The assay of Example 10 was used to determine the IC50's of the compounds. Other standard factor D inhibition assays are also available.
Human Factor D (purified from human serum, Complement Technology, Inc.) at 80 nM final concentration is incubated with test compound at various concentrations for 5 min at room temperature in 50 mM Tris, 1M NaCl, pH 7.5. A synthetic substrate Z-L-Lys-SBz and DTNB (Ellman's reagent) are added to final concentrations of 100 μM each. Absorbance at 405 nm (A405) is recorded at 30 second intervals for 30 min using a microplate spectrophotometer. IC50 values are calculated by nonlinear regression of complement Factor D reaction rates as a function of test compound concentration.

Human Factor D, sequence (P00746 26-253): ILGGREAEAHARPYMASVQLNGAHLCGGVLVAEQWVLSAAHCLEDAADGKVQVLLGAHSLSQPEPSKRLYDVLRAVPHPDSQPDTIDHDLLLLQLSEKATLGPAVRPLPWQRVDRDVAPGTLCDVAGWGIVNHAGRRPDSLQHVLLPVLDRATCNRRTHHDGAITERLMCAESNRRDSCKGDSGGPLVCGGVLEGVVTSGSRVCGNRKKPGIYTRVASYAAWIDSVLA

Row | SMILES | IC50 [nM]
1 | CC(=O)c1nn(CC(=O)N2[C@H](C(=O)O)C[C@@]3(C)C[C@@H]23)c2ccc(-c3cnc(C)nc3)cc12 [Compound 40, (1R,3S,5R)-2-(2-(3-acetyl-5-(2-methylpyrimidin-5-yl)-1H-indazol-1-yl)acetyl)-5-methyl-2-azabicyclo[3.1.0]hexane-3-carboxylic acid] | > 10000
2 | CC(=O)c1nn(CC(=O)N2C[C@H](F)C[C@H]2C(=O)Nc2cccc(Br)n2)c2c(C(=O)O)cc(-c3cnc(C)nc3)cc12 [Compound 41, 3-acetyl-1-(2-((2S,4R)-2-((6-bromopyridin-2-yl)carbamoyl)-4-fluoropyrrolidin-1-yl)-2-oxoethyl)-5-(2-methylpyrimidin-5-yl)-1H-indazole-7-carboxylic acid] | < 1000
3 | CNCC12CC1N(C(=O)Cn1nc(C(C)=O)c3cc(-c4cnc(C)nc4)ccc31)[C@H](C(=O)Nc1nc(Br)ccc1C)C2 (stereo partly drawn) [Compound 42, (3S)-2-(2-(3-acetyl-5-(2-methylpyrimidin-5-yl)-1H-indazol-1-yl)acetyl)-N-(6-bromo-3-methylpyridin-2-yl)-5-((methylamino)methyl)-2-azabicyclo[3.1.0]hexane-3-carboxamide] | < 1000
4 | CC(=O)NC[C@@]12C[C@@H]1N(C(=O)Cn1nc(C(C)=O)c3cc(-c4cnc(C)nc4)ccc31)[C@H](C(=O)Nc1cccc(Br)n1)C2 [Compound 43, (1S,3S,5S)-5-(Acetamidomethyl)-2-(2-(3-acetyl-5-(2-methylpyrimidin-5-yl)-1H-indazol-1-yl)acetyl)-N-(6-bromopyridin-2-yl)-2-azabicyclo[3.1.0]hexane-3-carboxamide] | 1000 to 10000
5 | CC(=O)NC[C@@]12C[C@@H](C(=O)Nc3cccc(Br)n3)N(C(=O)Cn3nc(C(C)=O)c4cc(-c5cnc(C)nc5)ccc43)[C@@H]1C2 [Compound 44, (1R,3S,5R)-5-(Acetamidomethyl)-2-(2-(3-acetyl-5-(2-methylpyrimidin-5-yl)-1H-indazol-1-yl)acetyl)-N-(6-bromopyridin-2-yl)-2-azabicyclo[3.1.0]hexane-3-carboxamide] | < 1000
6 | COC(=O)N[C@H](C(=O)NCC12CC1N(C(=O)Cn1nc(C(C)=O)c3cc(-c4cnc(C)nc4)ccc31)[C@H](C(=O)Nc1cccc(Br)n1)C2)C(C)C (stereo partly drawn) [Compound 45, Methyl (2S)-1-(((3S)-2-(2-(3-acetyl-5-(2-methylpyrimidin-5-yl)-1H-indazol-1-yl)acetyl)-3-(6-bromopyridin-2-ylcarbamoyl)-2-azabicyclo[3.1.0]hexan-5-yl)methylamino)-3-methyl-1-oxobutan-2-ylcarbamate] | < 1000
7 | CC(=O)c1nn(CC(=O)N2[C@H](C(=O)Nc3ccc(F)c(Br)n3)C[C@@]3(C)C[C@@H]23)c2c(C)cc(-c3cnc(C)nc3)cc12 [Compound 46, (1R,3S,5R)-2-(2-(3-acetyl-7-methyl-5-(2-methylpyrimidin-5-yl)-1H-indazol-1-yl)acetyl)-N-(6-bromo-5-fluoropyridin-2-yl)-5-methyl-2-azabicyclo[3.1.0]hexane-3-carboxamide] | < 1000
8 | CCc1cc(-c2cnc(C)nc2)cc2c(C(C)=O)nn(CC(=O)N3[C@H](C(=O)Nc4nc(Br)ccc4C)C[C@@]4(C)C[C@@H]34)c12 [Compound 47, (1R,3S,5R)-2-(2-(3-Acetyl-7-ethyl-5-(2-methylpyrimidin-5-yl)-1H-indazol-1-yl)acetyl)-N-(6-bromo-3-methylpyridin-2-yl)-5-methyl-2-azabicyclo[3.1.0]hexane-3-carboxamide] | < 1000
9 | COCc1ccc(Br)c(NC(=O)[C@@H]2CC3(CNC(=O)[C@@H](NC(=O)OC)C(C)C)CC3N2C(=O)Cn2nc(C(C)=O)c3cc(-c4cnc(C)nc4)ccc32)n1 (stereo partly drawn) [Compound 48, methyl ((2S)-1-((((3S)-2-(2-(3-acetyl-5-(2-methylpyrimidin-5-yl)-1H-indazol-1-yl)acetyl)-3-((3-bromo-6-(methoxymethyl)pyridin-2-yl)carbamoyl)-2-azabicyclo[3.1.0]hexan-5-yl)methyl)amino)-3-methyl-1-oxobutan-2-yl)carbamate] | > 10000
10 | CC(=O)c1nn(CC(=O)N2[C@H](C(=O)Nc3nc(Br)ccc3C)C[C@@]3(C)C[C@@H]23)c2c(C)cc(-c3cnc(C)[n+]([O-])c3)cc12 [Compound 50, 5-(3-Acetyl-1-(2-((1R,3S,5R)-3-(6-bromo-3-methylpyridin-2-ylcarbamoyl)-5-methyl-2-azabicyclo[3.1.0]hexan-2-yl)-2-oxoethyl)-7-methyl-1H-indazol-5-yl)-2-methylpyrimidine 1-oxide] | < 1000
11 | Cc1ncc(-c2ccc3c(c2)c(C(N)=O)nn3CC(=O)N2C[C@H]3C[C@H]3[C@H]2C(=O)Nc2nc(Br)ccc2C)cn1 [Compound 56, 1-(2-((1R,2S,5S)-2-((6-Bromo-3-methylpyridin-2-yl)carbamoyl)-3-azabicyclo[3.1.0]hexan-3-yl)-2-oxoethyl)-5-(2-methylpyrimidin-5-yl)-1H-indazole-3-carboxamide] | < 1000
12 | Cc1ncc(-c2cc(C)c3c(c2)c(C(N)=O)nn3CC(=O)N2[C@H](C(=O)Nc3nc(Br)ccc3C)C[C@@]3(C)C[C@@H]23)cn1 [Compound 57, 1-(2-((1R,3S,5R)-3-((6-Bromo-3-methylpyridin-2-yl)carbamoyl)-5-methyl-2-azabicyclo[3.1.0]hexan-2-yl)-2-oxoethyl)-7-methyl-5-(2-methylpyrimidin-5-yl)-1H-indazole-3-carboxamide] | < 1000
13 | Cc1ncc(-c2cc(C)c3c(c2)c(C(N)=O)nn3CC(=O)N2[C@H](C(=O)Nc3cccc(Br)n3)C[C@@]3(C)C[C@@H]23)cn1 [Compound 58, 1-(2-((1R,3S,5R)-3-((6-Bromopyridin-2-yl)carbamoyl)-5-methyl-2-azabicyclo[3.1.0]hexan-2-yl)-2-oxoethyl)-7-methyl-5-(2-methylpyrimidin-5-yl)-1H-indazole-3-carboxamide] | < 1000
14 | CC(=O)c1nn(CC(=O)N2C[C@H](F)C[C@H]2C(=O)Nc2nc(Br)ccc2CC(=O)O)c2ccc(-c3cnc(C)nc3)cc12 [Compound 62, 2-(2-((2S,4R)-1-(2-(3-Acetyl-5-(2-methylpyrimidin-5-yl)-1H-indazol-1-yl)acetyl)-4-fluoropyrrolidine-2-carboxamido)-6-bromopyridin-3-yl)acetic Acid] | < 1000
15 | CC(=O)c1nn(CC(=O)N2[C@H](C(=O)Nc3nc(Br)ccc3C)C[C@@]3(C)C[C@@H]23)c2ccc(-c3cnc(C)[n+]([O-])c3)cc12 [Compound 64, 5-(3-acetyl-1-(2-((1R,3S,5R)-3-((6-bromo-3-methylpyridin-2-yl)carbamoyl)-5-methyl-2-azabicyclo[3.1.0]hexan-2-yl)-2-oxoethyl)-1H-indazol-5-yl)-2-methylpyrimidine 1-oxide] | < 1000
16 | CC(=O)c1nn(CC(=O)N2[C@H](C(=O)Nc3nc(Br)ccc3C)C[C@@]3(CO)C[C@@H]23)c2ccc(-c3cnc(C)nc3)cc12 [Compound 65, (1R,3S,5S)-2-(2-(3-acetyl-5-(2-methylpyrimidin-5-yl)-1H-indazol-1-yl)acetyl)-N-(6-bromo-3-methylpyridin-2-yl)-5-(hydroxymethyl)-2-azabicyclo[3.1.0]hexane-3-carboxamide] | < 1000
17 | CC(=O)c1nn(CC(=O)N2C[C@@](F)(CF)C[C@H]2C(=O)Nc2nc(Br)ccc2C)c2c(C)cc(-c3cnc(C)nc3)cc12 [Compound 66, (2S,4R)-1-(2-(3-Acetyl-7-methyl-5-(2-methylpyrimidin-5-yl)-1H-indazol-1-yl)acetyl)-N-(6-bromo-3-methylpyridin-2-yl)-4-fluoro-4-(fluoromethyl)pyrrolidine-2-carboxamide] | < 1000
18 | CC(=O)c1nn(CC(=O)N2[C@H](C(=O)Nc3nc(Br)ccc3C)C[C@@]3(CN4CC5(CCC5)C4)C[C@@H]23)c2ccc(-c3cnc(C)nc3)cc12 [Compound 67, (1R,3S,5R)-5-(2-azaspiro[3.3]heptan-2-ylmethyl)-2-(2-(3-acetyl-5-(2-methylpyrimidin-5-yl)-1H-indazol-1-yl)acetyl)-N-(6-bromo-3-methylpyridin-2-yl)-2-azabicyclo[3.1.0]hexane-3-carboxamide] | < 1000
19 | CC(=O)c1nn(CC(=O)N2[C@H]3C[C@@]3(CN3CC4(CCC4)C3)C[C@H]2C(=O)Nc2nc(Br)ccc2C)c2ccc(-c3cnc(C)nc3)cc12 [Compound 68] | < 1000
20 | CC(=O)c1nn(CC(=O)N2[C@H](C(=O)Nc3nc(Br)ccc3C)C[C@@]3(CN4CCN(C)CC4)C[C@@H]23)c2c(C)cc(-c3cnc(C)nc3)cc12 [Compound 69, (1R,3S,5R)-2-(2-(3-Acetyl-7-methyl-5-(2-methylpyrimidin-5-yl)-1H-indazol-1-yl)acetyl)-N-(6-bromo-3-methylpyridin-2-yl)-5-((4-methylpiperazin-1-yl)methyl)-2-azabicyclo[3.1.0]hexane-3-carboxamide] | < 1000
21 | C=CCOCc1ccc(Br)nc1NC(=O)[C@@H]1C[C@@]2(CN(C)CC=C)C[C@H]2N1C(=O)Cn1nc(C(C)=O)c2cc(-c3cnc(C)nc3)ccc21 [Compound 70, (1R,3S,5R)-2-(2-(3-Acetyl-5-(2-methylpyrimidin-5-yl)-1H-indazol-1-yl)acetyl)-5-((allyl(methyl)amino)methyl)-N-(3-((allyloxy)methyl)-6-bromopyridin-2-yl)-2-azabicyclo[3.1.0]hexane-3-carboxamide] | < 1000
22 | Cc1ncc(-c2ccc3c(c2)c(C(C)O)nn3CC(=O)N2C[C@H]3C[C@H]3[C@H]2C(=O)Nc2nc(Br)ccc2C)cn1 (stereo partly drawn) [Compound 71, (1R,2S,5S)-N-(6-bromo-3-methylpyridin-2-yl)-3-(2-(3-(1-hydroxyethyl)-5-(2-methylpyrimidin-5-yl)-1H-indazol-1-yl)acetyl)-3-azabicyclo[3.1.0]hexane-2-carboxamide] | 1000 to 10000
